The values that follow come from paper PMC10046369, “Low-Affinity/High-Selectivity Dopamine Transport Inhibition Sufficient to Rescue Cognitive Functions in the Aging Rat” (Biomolecules, 2023).

Test in all cases: biochemical
Holding throughout (parameters): KINOMEscan competition binding panel, per cent of control
What all share (conditions): read-out: %Ctrl @ 2800nM

The target of one assay is BRSK1 (Homo sapiens, UniProt Q8TDC3). The procedure, abridged: (§1)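 Values are expressed as percent of control, calculated as ((test − positive control)/(negative control − positive control)) × 100, so lower numbers mean stronger hits. Binding was measured by KINOMEscan competition assay in a 450-kinase human panel including disease mutants, using the contractor's validated protocol.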

The target in the next assay is KIT(V559D) (Homo sapiens, UniProt P10721, V559D). The procedure, abridged:
as §1

The next assay deals with LATS1 (Homo sapiens, UniProt O95835). The method in brief: as §1
Another assay has as its target TBK1 (Homo sapiens, UniProt Q9UHD2). The procedure, abridged: as §1

Sequence of TBK1 (Q9UHD2 whole entry): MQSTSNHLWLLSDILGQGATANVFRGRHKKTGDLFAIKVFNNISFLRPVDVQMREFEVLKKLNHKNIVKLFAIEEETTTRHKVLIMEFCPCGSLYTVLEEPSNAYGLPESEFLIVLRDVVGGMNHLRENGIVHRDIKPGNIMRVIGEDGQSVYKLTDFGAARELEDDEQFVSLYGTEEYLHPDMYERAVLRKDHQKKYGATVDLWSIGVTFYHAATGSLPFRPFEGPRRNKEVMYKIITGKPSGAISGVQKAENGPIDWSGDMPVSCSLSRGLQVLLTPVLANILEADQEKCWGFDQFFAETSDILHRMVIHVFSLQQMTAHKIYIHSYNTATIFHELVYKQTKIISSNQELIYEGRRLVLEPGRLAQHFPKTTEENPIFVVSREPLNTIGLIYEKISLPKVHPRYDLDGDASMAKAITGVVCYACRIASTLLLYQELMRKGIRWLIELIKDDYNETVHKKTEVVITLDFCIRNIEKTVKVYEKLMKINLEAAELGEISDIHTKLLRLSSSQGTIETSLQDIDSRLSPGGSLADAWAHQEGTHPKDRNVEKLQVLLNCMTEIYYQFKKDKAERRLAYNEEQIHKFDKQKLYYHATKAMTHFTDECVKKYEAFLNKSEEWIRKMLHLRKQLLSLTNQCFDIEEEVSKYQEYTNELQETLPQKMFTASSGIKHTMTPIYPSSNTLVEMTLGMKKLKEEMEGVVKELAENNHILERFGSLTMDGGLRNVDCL
Sequence of BRSK1 (Q8TDC3 whole entry): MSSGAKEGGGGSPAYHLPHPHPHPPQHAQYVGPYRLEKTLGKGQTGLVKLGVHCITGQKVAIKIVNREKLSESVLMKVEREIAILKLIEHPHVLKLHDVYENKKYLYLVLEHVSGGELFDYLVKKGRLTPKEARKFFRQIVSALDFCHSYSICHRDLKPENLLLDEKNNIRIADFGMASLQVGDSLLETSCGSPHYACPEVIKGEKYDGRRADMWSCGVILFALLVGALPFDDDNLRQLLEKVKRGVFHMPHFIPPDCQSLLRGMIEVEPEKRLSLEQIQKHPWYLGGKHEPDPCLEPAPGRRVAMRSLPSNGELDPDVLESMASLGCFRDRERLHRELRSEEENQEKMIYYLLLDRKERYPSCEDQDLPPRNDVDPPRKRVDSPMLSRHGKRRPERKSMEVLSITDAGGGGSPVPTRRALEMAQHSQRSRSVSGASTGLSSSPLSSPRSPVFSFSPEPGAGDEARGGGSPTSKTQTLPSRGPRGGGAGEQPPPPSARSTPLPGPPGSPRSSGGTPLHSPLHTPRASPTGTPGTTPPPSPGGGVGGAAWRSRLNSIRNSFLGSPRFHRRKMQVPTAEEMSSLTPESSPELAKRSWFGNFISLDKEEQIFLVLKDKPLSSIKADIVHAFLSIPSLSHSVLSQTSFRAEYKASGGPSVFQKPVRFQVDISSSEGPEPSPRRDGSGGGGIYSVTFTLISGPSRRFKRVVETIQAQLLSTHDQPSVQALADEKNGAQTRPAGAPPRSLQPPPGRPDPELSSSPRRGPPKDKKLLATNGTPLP
Sequence of KIT(V559D) (P10721 whole entry V559D): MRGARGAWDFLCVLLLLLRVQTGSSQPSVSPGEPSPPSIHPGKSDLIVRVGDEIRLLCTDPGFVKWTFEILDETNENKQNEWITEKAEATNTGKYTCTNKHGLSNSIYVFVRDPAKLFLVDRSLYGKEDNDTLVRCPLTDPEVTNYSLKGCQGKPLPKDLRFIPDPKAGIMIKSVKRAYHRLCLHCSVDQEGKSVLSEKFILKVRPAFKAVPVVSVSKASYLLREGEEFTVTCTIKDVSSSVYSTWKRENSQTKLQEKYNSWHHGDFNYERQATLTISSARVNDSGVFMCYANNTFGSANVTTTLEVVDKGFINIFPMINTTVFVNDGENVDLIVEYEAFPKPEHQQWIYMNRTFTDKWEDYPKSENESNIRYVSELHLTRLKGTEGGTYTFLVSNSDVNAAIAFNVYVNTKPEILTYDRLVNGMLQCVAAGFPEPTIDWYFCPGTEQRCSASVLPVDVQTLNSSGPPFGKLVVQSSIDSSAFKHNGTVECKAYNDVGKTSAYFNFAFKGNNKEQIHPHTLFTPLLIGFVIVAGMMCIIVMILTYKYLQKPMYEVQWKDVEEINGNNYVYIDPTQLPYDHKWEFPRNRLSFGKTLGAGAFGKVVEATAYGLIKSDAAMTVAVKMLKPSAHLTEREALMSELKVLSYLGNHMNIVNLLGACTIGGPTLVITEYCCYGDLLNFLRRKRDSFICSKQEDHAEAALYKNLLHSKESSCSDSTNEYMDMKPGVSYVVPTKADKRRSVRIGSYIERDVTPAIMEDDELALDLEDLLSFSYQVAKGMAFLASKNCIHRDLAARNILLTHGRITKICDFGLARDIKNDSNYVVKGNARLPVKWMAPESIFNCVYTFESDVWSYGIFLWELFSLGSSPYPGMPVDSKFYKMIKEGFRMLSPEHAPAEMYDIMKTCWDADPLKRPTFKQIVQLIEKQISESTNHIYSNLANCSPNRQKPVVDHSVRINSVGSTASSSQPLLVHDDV
Sequence of LATS1 (O95835 whole entry): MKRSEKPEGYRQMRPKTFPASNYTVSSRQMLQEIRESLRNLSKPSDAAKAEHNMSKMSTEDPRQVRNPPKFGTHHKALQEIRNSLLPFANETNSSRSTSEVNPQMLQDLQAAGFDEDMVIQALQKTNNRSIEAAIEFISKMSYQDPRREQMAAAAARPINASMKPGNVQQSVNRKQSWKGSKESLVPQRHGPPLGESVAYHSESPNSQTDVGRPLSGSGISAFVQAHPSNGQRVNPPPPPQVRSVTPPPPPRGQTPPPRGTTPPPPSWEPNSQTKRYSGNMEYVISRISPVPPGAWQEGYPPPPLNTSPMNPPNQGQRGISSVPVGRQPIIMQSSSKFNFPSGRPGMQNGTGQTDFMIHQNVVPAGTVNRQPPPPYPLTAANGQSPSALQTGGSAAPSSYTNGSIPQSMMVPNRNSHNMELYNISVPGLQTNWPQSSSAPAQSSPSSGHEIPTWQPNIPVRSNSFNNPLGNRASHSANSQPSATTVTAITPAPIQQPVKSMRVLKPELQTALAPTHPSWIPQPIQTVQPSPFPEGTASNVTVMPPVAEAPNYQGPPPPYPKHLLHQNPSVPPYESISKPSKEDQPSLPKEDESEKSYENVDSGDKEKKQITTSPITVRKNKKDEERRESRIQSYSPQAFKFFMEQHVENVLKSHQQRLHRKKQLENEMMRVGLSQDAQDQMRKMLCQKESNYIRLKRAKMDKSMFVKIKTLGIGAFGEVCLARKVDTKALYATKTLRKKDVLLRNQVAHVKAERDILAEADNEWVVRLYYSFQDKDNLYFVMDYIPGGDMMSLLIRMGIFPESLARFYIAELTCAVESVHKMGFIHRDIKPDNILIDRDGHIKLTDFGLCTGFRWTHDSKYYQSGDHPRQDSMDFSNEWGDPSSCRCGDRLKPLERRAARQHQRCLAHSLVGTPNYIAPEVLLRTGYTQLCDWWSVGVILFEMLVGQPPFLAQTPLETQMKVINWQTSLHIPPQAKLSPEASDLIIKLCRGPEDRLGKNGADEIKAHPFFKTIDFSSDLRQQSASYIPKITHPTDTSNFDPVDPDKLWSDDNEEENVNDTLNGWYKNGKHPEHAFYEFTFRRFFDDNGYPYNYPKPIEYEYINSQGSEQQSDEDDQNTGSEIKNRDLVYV

As for `[O-][S@@+](Cc1cncs1)C(c1ccccc1)c1ccccc1` [S-CE-123, (S)-5-((Benzhydrylsulfinyl)Methyl)Thiazole], the remaining binding at 2.8 µM at BRSK1 worked out at 100%; at KIT(V559D), 97%; at LATS1, 93%; on TBK1, 100%.
